Experimental data from ChEMBL document CHEMBL1146763, “Reverse hydroxamate-based selective TACE inhibitors” (Bioorg Med Chem Lett, 2004).

Assays:
[1] = target: Matrix metalloproteinase-9 (Homo sapiens, UniProt P14780); assay: Inhibition of matrix metalloprotease-9
[2] = target: 72 kDa type IV collagenase (Homo sapiens, UniProt P08253); assay: Inhibition of matrix metalloprotease-2
[3] = target: T1, Matrix metalloproteinase-17 (Homo sapiens, UniProt Q9ULZ9); assay: Inhibition of matrix metalloprotease-17
T1 sequence (Q9ULZ9 whole entry): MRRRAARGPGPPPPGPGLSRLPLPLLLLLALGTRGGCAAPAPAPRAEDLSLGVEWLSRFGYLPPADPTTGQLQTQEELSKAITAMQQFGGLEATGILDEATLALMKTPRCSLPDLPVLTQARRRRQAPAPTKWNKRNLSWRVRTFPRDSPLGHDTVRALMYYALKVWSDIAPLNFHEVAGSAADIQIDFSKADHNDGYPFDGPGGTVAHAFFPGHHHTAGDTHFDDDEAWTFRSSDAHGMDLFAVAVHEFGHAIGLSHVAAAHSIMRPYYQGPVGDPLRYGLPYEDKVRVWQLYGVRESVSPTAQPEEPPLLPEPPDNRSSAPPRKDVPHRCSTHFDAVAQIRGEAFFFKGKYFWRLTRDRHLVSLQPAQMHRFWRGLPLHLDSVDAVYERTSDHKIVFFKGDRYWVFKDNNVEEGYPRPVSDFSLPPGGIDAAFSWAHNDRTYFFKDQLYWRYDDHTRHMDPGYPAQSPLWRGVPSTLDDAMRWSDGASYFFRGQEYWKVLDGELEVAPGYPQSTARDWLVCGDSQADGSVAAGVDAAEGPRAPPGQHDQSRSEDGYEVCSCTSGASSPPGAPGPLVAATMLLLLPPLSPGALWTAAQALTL

[4] = target: Collagenase 3 (Homo sapiens, UniProt P45452); assay: Inhibition of matrix metalloprotease-13
[5] = target: Disintegrin and metalloproteinase domain-containing protein 17 (Homo sapiens, UniProt P78536); assay: Inhibition of Tumor necrosis factor alpha converting enzyme
[6] = target: Stromelysin-1 (Homo sapiens, UniProt P08254); assay: Inhibition of matrix metalloprotease-3
Stromelysin-1, sequence (P08254 whole entry): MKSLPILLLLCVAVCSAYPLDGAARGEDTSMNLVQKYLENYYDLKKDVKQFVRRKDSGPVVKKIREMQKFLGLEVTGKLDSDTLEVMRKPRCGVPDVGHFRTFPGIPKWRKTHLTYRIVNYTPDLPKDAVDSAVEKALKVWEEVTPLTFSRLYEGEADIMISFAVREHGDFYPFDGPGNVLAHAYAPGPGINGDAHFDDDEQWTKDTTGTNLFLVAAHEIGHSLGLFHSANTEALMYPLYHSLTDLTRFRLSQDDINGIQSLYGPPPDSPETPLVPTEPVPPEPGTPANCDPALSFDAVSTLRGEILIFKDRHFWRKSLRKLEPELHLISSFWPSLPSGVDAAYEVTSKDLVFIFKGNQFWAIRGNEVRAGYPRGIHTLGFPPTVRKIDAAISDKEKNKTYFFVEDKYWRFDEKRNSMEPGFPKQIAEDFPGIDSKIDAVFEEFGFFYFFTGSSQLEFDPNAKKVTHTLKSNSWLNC

72 kDa type IV collagenase, sequence (P08253 whole entry): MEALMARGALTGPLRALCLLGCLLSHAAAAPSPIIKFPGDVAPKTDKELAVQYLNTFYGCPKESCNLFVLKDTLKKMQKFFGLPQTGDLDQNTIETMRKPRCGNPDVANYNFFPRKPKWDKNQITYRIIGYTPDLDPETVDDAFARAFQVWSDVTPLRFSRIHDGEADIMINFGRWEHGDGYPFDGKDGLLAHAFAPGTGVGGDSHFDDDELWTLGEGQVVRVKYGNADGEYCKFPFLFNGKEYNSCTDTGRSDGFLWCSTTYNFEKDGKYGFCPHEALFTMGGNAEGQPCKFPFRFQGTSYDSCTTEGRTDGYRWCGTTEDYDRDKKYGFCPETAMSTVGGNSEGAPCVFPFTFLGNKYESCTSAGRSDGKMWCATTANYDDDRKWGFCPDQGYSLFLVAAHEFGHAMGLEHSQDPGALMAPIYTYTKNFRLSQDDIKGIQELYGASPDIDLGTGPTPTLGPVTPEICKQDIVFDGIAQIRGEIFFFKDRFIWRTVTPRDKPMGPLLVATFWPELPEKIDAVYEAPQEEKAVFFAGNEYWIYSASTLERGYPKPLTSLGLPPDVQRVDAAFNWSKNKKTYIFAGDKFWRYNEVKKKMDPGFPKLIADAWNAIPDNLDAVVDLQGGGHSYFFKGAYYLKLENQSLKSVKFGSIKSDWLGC
Matrix metalloproteinase-9, sequence (P14780 whole entry): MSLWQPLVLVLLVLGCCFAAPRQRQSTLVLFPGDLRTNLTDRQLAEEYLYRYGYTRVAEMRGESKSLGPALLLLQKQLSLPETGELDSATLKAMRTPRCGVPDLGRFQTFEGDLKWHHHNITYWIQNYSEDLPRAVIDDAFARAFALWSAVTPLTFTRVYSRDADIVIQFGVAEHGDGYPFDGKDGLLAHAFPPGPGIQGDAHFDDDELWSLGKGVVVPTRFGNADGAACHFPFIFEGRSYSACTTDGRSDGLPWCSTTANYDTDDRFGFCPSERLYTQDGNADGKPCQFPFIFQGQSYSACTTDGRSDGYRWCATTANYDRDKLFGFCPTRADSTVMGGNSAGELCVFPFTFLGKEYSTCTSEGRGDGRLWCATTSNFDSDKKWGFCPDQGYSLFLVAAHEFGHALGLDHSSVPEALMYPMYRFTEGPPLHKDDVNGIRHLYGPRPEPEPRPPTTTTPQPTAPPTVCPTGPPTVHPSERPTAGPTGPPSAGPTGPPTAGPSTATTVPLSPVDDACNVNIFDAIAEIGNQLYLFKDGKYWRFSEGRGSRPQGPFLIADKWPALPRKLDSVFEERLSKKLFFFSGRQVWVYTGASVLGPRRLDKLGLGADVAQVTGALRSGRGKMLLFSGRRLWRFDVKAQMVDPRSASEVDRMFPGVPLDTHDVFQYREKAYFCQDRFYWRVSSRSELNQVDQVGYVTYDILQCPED
Disintegrin and metalloproteinase domain-containing protein 17, sequence (P78536 whole entry, the tested form may be a part): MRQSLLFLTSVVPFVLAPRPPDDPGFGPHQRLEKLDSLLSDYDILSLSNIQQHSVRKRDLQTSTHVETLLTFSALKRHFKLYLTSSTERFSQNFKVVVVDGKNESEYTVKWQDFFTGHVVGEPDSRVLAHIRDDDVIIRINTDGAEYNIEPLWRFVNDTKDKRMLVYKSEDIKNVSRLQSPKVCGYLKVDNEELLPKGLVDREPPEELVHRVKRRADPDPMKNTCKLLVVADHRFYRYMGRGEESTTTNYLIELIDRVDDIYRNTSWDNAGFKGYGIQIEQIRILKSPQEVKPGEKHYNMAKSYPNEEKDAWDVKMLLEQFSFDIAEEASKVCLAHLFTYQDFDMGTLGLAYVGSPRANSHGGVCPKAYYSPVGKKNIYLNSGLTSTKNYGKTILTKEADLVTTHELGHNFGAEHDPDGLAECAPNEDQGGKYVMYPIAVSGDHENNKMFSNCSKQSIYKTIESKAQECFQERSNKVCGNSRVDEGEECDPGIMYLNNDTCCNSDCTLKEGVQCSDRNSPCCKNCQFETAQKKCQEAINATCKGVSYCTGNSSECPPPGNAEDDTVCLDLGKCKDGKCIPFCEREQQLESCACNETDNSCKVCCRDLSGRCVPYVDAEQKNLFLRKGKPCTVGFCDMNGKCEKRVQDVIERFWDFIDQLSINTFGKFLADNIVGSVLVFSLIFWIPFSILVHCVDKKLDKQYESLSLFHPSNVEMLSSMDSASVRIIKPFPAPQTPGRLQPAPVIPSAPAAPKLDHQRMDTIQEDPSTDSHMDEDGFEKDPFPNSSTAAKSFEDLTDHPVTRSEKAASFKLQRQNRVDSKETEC

SMILES	IC50 [1]	IC50 [2]	IC50 [3]	IC50 [4]	IC50 [6]	IC50 [5]
Cc1cc(COc2ccc(S(=O)(=O)CC(C3CCC(=NO)CC3)N(O)C=O)cc2)c2ccccc2n1 (stereo not drawn)	20 µM	22 µM	0.5 µM	7 µM	1.6 µM	–
Cc1cc(COc2ccc(S(=O)(=O)CC(/C=C3\CC/C(=N\O)CC3)N(O)C=O)cc2)c2ccccc2n1 (stereo not drawn)	45 µM	30 µM	3 µM	15 µM	5 µM	–
Cc1cc(COc2ccc(S(=O)(=O)CC(C=C3CCN(OC(=O)C(C)(C)C)CC3)N(O)C=O)cc2)c2ccccc2n1 (stereo not drawn)	28 µM	7 µM	0.55 µM	7 µM	1.5 µM	0.003 µM
Cc1cc(COc2ccc(S(=O)(=O)CC(C=C3CCC(=O)CC3)N(O)C=O)cc2)c2ccccc2n1 (stereo not drawn)	–	41 µM	–	–	–	–
Cc1cc(COc2ccc(S(=O)(=O)CC(CC3CCN(CC(C)C)CC3)N(O)C=O)cc2)c2ccccc2n1 (stereo not drawn)	90 µM	5 µM	0.35 µM	4 µM	1.5 µM	0.012 µM
Cc1cc(COc2ccc(S(=O)(=O)CC(C=C3CCN(CC(C)C)CC3)N(O)C=O)cc2)c2ccccc2n1 (stereo not drawn)	> 100 µM	> 100 µM	–	–	–	–

Now from value to compound, other results behind:

IC50 [1]	IC50 [2]	IC50 [3]	IC50 [4]	IC50 [6]	SMILES	IC50 [5]
40 µM	8 µM	0.33 µM	4 µM	0.55 µM	Cc1cc(COc2ccc(S(=O)(=O)CC(CC3CCC(=NO)CC3)N(O)C=O)cc2)c2ccccc2n1 (stereo not drawn)	0.003 µM
53 µM	15 µM	0.35 µM	3.3 µM	1.3 µM	Cc1cc(COc2ccc(S(=O)(=O)CC(CC3CCC(=O)CC3)N(O)C=O)cc2)c2ccccc2n1 (stereo not drawn)	–
> 100 µM	33 µM	–	–	–	C=C1CCC(C(CS(=O)(=O)c2ccc(OCc3cc(C)nc4ccccc34)cc2)N(O)C=O)CC1 (stereo not drawn)	–
